Consider 34 compounds from patent publication US8324405B2, “Chromene derivatives and use thereof as HIF hydroxylase activity inhibitors” (FibroGen, Inc., priority 2008, dated 2012).

The target in one experiment is T1, HIF-PH2 (Homo sapiens, UniProt Q9GZT9).
T1 construct: made in house; host or cells: insect Hi5 cells
T1 sequence (Q9GZT9 whole entry, species assumed): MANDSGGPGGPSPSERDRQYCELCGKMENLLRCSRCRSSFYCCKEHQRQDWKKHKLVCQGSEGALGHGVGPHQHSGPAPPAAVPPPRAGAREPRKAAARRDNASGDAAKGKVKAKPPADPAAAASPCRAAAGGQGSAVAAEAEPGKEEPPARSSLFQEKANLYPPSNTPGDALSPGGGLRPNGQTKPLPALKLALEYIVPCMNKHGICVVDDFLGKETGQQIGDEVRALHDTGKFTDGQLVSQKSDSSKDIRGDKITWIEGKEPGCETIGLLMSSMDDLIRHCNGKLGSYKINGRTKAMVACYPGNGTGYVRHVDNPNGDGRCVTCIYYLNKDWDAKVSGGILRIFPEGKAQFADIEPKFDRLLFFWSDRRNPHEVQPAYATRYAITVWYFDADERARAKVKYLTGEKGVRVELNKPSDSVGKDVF
In words: HIF-PH assay (14CO2 capture, peptide-dependent turnover). In kind it is biochemical. To be noted: Concentration 7.41 μM. From the text:
Ketoglutaric acid α-[1-^14C]-sodium salt, alpha-ketoglutaric acid sodium salt, and HPLC purified peptide may be obtained from commercial sources, e.g., Perkin-Elmer (Wellesley Mass.), Sigma-Aldrich, and SynPep Corp. (Dublin Calif.), respectively. Peptides for use in the assay may be fragments of HIFα as described above or as disclosed in International Publication WO 2005/118836, incorporated by reference herein. For example, a HIF peptide for use in the HIF-PH assay is [methoxycoumarin]-DLDLEALAPYIPADDDFQL-amide. HIF-PH, e.g., HIF-PH2 (EGLN1), can be expressed in, e.g., insect Hi5 cells, and partially purified, e.g., through a SP ion exchange chromatography column. Enzyme activity is determined by capturing ^14CO2 using an assay described by Kivirikko and Myllyla (1982, Methods Enzymol. 82:245-304). Assay reactions contain 50 mM HEPES (pH 7.4), 100 μM α-ketoglutaric acid sodium salt, 0.30 μCi/mL ketoglutaric acid α-[1-^14C]-sodium salt, 40 μM FeSO4, 1 mM ascorbate, 1541.8 units/mL Catalase, with or without 50 μM peptide substrate and various concentrations of compound of the invention. Reactions are initiated by addition of HIF-PH enzyme.
The peptide-dependent percent turnover is calculated by subtracting percent turnover in the absence of peptide from percent turnover in the presence of substrate peptide. Percent inhibition and IC50 are calculated using peptide-dependent percent turnover at given inhibitor concentrations. Calculation of IC50 values for each inhibitor is conducted using GraFit software (Erithacus Software Ltd., Surrey UK).
Representative compounds of the invention were analyzed using the HIF-PH assay described above. Table I presents enzyme inhibition data for exemplary compounds against HIF-PH2, a representative HIF prolyl hydroxylase. By inhibiting HIF prolyl hydroxylase, compounds of the invention stabilize HIFα, which then combines with HIFβ to form an active transcription factor that increases expression of various genes involved in numerous beneficial cellular processes.
Take `O=C(O)CNC(=O)c1c(O)c2cc(-c3ccc(C(F)(F)F)cc3)ccc2oc1=O` [Example 5, {[4-Hydroxy-2-oxo-6-(4-trifluoromethyl-phenyl)-2H-chromene-3-carbonyl]-amino}-acetic acid]: at 7.41 µM the inhibition was 96%. Same read-out and setting: under `COc1ccc(-c2ccc3oc(=O)c(C(=O)NCC(=O)O)c(O)c3c2)cc1` [Example 3, {[4-Hydroxy-6-(4-methoxy-phenyl)-2-oxo-2H-chromene-3-carbonyl]-amino}-acetic acid] stands 94%; under `O=C(O)CNC(=O)c1c(O)c2cc(-c3ccc(Oc4ccccc4)cc3)ccc2oc1=O` [Example 4, {[4-Hydroxy-2-oxo-6-(4-phenoxy-phenyl)-2H-chromene-3-carbonyl]-amino}-acetic acid], 100%.

The experiment is the same for the next values; noted with them: Concentration 12.50 μM.
In turn, `O=C(O)CNC(=O)c1c(O)c2cc3ccccc3cc2oc1=O` [Example 32, [(4-Hydroxy-2-oxo-2H-benzo[g]chromene-3-carbonyl)-amino]-acetic acid] gave an inhibition at 12.5 µM of 98%. The same measure, in the same setting: under `Cc1cc2oc(=O)c(C(=O)NCC(=O)O)c(O)c2cc1C` [Example 15, [(4-Hydroxy-6,7-dimethyl-2-oxo-2H-chromene-3-carbonyl)-amino]-acetic acid] stands 98%. Still for that read-out and setting: the same measure for `O=C(O)CNC(=O)c1c(O)c2ccc(F)cc2oc1=O` [Example 17, [(7-Fluoro-4-hydroxy-2-oxo-2H-chromene-3-carbonyl)-amino]-acetic acid]: 98%.

`O=C(O)CNC(=O)c1c(O)c2cc3cc(Br)ccc3c(Br)c2oc1=O` [Example 34, [(7,10-Dibromo-4-hydroxy-2-oxo-2H-benzo[g]chromene-3-carbonyl)-amino]-acetic acid]: testing at 12.5 µM gave an inhibition of 100%.

With `Cc1ccc2c(O)c(C(=O)NCC(=O)O)c(=O)oc2c1` [Example 35, [(4-Hydroxy-7-methyl-2-oxo-2H-chromene-3-carbonyl)-amino]-acetic acid], the inhibition at 12.5 µM is 97%. Compound `O=C(O)CNC(=O)c1c(O)c2cc(-c3ccco3)ccc2oc1=O` [Example 28, [(6-Furan-2-yl-4-hydroxy-2-oxo-2H-chromene-3-carbonyl)-amino]-acetic acid] registered an inhibition at 12.5 µM of 100%. Still for that read-out and setting: the same measure for `O=C(O)CNC(=O)c1c(O)c2cc(F)cc(F)c2oc1=O` [Example 18, [(6,8-Difluoro-4-hydroxy-2-oxo-2H-chromene-3-carbonyl)-amino]-acetic acid]: 95%.

For the compound `O=C(O)CNC(=O)c1c(O)c2cc(F)ccc2oc1=O` [Example 16, [(6-Fluoro-4-hydroxy-2-oxo-2H-chromene-3-carbonyl)-amino]-acetic acid], the inhibition at 12.5 µM was found to be 96%. `O=C(O)CNC(=O)c1c(O)c2cc(-c3cccs3)ccc2oc1=O` [Example 27, [(4-Hydroxy-2-oxo-6-thiophen-2-yl-2H-chromene-3-carbonyl)-amino]-acetic acid]: the inhibition at 12.5 µM is 99%. On the same count and under the same terms, under `O=C(O)CNC(=O)c1c(O)c2ccc3ccccc3c2oc1=O` [Example 31, [(4-Hydroxy-2-oxo-2H-benzo[h]chromene-3-carbonyl)-amino]-acetic acid] stands 100%.

Still in this experiment, the particulars now being: Concentration 22.22 μM.
Compound `O=C(O)CNC(=O)c1c(O)c2cc(-c3ccc(OCc4ccccc4)cc3)ccc2oc1=O` [Example 8, {[6-(4-Benzyloxy-phenyl)-4-hydroxy-2-oxo-2H-chromene-3-carbonyl]-amino}-acetic acid] yielded an inhibition at 22.22 µM of 100%. Regarding `O=C(O)CNC(=O)c1c(O)c2ccc(-c3ccc(Oc4ccccc4)cc3)cc2oc1=O` [Example 11, {[4-Hydroxy-2-oxo-7-(4-phenoxy-phenyl)-2H-chromene-3-carbonyl]-amino}-acetic acid], the inhibition at 22.22 µM is 100%. Still for that read-out and setting: the same measure for `O=C(O)CNC(=O)c1c(O)c2ccccc2oc1=O` [Example 1, [(4-Hydroxy-2-oxo-2H-chromene-3-carbonyl)-amino]-acetic acid]: 96%; for `O=C(O)CNC(=O)c1c(O)c2ccc(Oc3ccccc3)cc2oc1=O` [Example 9, [(4-Hydroxy-2-oxo-7-phenoxy-2H-chromene-3-carbonyl)-amino]-acetic acid]: 100%.

On to `C[C@H](NC(=O)c1c(O)c2ccc(-c3ccc(Oc4ccccc4)cc3)cc2oc1=O)C(=O)O` [Example 12, 2-S-{[4-Hydroxy-2-oxo-7-(4-phenoxy-phenyl)-2H-chromene-3-carbonyl]-amino}-propionic acid], for which the “% Inhibition HIF-PH2” value amounted to 100%. With `Cc1ccc2c(O)c(C(=O)NCC(=O)O)c(=O)oc2c1C` [Example 10, [(4-Hydroxy-7,8-dimethyl-2-oxo-2H-chromene-3-carbonyl)-amino]-acetic acid], the inhibition at 22.22 µM came out at 100%. Same read-out and setting: under `O=C(O)CNC(=O)c1c(O)c2cc(Cl)cc(Cl)c2oc1=O` [Example 13, [(6,8-Dichloro-4-hydroxy-2-oxo-2H-chromene-3-carbonyl)-amino]-acetic acid] stands 96%; under `O=C(O)CNC(=O)c1c(O)c2cc(Br)ccc2oc1=O` [Example 2, [(6-Bromo-4-hydroxy-2-oxo-2H-chromene-3-carbonyl)-amino]-acetic acid], 97%.

Staying with this experiment, now noted: Concentration 50.00 μM.
Compound `Cc1ccc(COc2cccc3oc(=O)c(C(=O)NCC(=O)O)c(O)c23)cc1` [Example 48, {[4-Hydroxy-5-(4-methyl-benzyloxy)-2-oxo-2H-chromene-3-carbonyl]-amino}-acetic acid] showed an inhibition at 50 µM of 99%. Take `O=C(O)CNC(=O)c1c(O)c2cc(-c3ccccn3)ccc2oc1=O` [Example 30, [(4-Hydroxy-2-oxo-6-pyridin-2-yl-2H-chromene-3-carbonyl)-amino]-acetic acid]: the inhibition at 50 µM is 99%. Still for that read-out and setting: under `Cc1cccc2c(O)c(C(=O)NCC(=O)O)c(=O)oc12` [Example 20, [(4-Hydroxy-8-methyl-2-oxo-2H-chromene-3-carbonyl)-amino]-acetic acid] stands 99%; under `O=C(O)CNC(=O)c1c(O)c2c(OCc3ccc(F)cc3)cccc2oc1=O` [Example 47, {[5-(4-Fluoro-benzyloxy)-4-hydroxy-2-oxo-2H-chromene-3-carbonyl]-amino}-acetic acid], 99%; under `O=C(O)CNC(=O)c1c(O)c2cc(-c3cccnc3)ccc2oc1=O` [Example 29, [(4-Hydroxy-2-oxo-6-pyridin-3-yl-2H-chromene-3-carbonyl)-amino]-acetic acid], 97%. Same read-out and setting: under `Cn1nc(C(F)(F)F)cc1-c1cc(Cl)cc2c(O)c(C(=O)NCC(=O)O)c(=O)oc12` [Example 21, {[6-Chloro-4-hydroxy-8-(2-methyl-5-trifluoromethyl-2H-pyrazol-3-yl)-2-oxo-2H-chromene-3-carbonyl]-amino}-acetic acid] stands 99%.

The compound `O=C(O)CNC(=O)c1c(O)c2cc(Cl)cc(-c3cccnc3)c2oc1=O` [Example 23, [(6-Chloro-4-hydroxy-2-oxo-8-pyridin-3-yl-2H-chromene-3-carbonyl)-amino]-acetic acid] gave an inhibition at 50 µM of 99%. On the same count and under the same terms, the same measure for `O=C(O)CNC(=O)c1c(O)c2c(OCc3ccccc3)cccc2oc1=O` [Example 46, [(5-Benzyloxy-4-hydroxy-2-oxo-2H-chromene-3-carbonyl)-amino]-acetic acid]: 99%; for `Cc1cc(Cl)cc2c(O)c(C(=O)NCC(=O)O)c(=O)oc12` [Example 19, [(6-Chloro-4-hydroxy-8-methyl-2-oxo-2H-chromene-3-carbonyl)-amino]-acetic acid]: 99%.

The experiment is the same for the next values; noted with them: Concentration 200.00 μM.
For the compound `O=C(O)CNC(=O)c1c(O)c2c(ccc3ccccc32)oc1=O` [Example 33, [(1-Hydroxy-3-oxo-3H-benzo[f]chromene-2-carbonyl)-amino]-acetic acid], the inhibition at 200 µM amounted to 100%. Same read-out and setting: under `O=C(O)CNC(=O)c1c(O)c2cccc(Cl)c2oc1=O` [Example 7, [(8-Chloro-4-hydroxy-2-oxo-2H-chromene-3-carbonyl)-amino]-acetic acid] stands 100%; under `Cc1ccc2oc(=O)c(C(=O)NCC(=O)O)c(O)c2c1` [Example 6, [(4-Hydroxy-6-methyl-2-oxo-2H-chromene-3-carbonyl)-amino]-acetic acid], 100%; under `CCOC(=O)CNC(=O)c1c(O)c2cc(Cl)cc(Cl)c2oc1=O` [Example 14, [(6,8-Dichloro-4-hydroxy-2-oxo-2H-chromene-3-carbonyl)-amino]-acetic acid ethyl ester], 43%.
